Results: patent US5840697A, “Peptide inhibitors of calmodulin” (Torrey Pines Institute for Molecular Studies, priority 1996, dated 1998)
Where two headings read alike, the source gives them in different places. Square brackets hold non-standard residues; d marks the D form. Peptide text beside a SMILES is read from it.

Assays:
rat liver cells = assay: in vivo rat model: DNA synthesis of rat liver cells after partial hepatectomy; conditions: intravenous injection 5 hours after partial hepatectomy, measured 24 hours post hepatectomy
From the text: The effect that calmodulin inhibitors have on DNA synthesis were also studied in vivo in a rat model. Rat liver cells are a useful in vivo system for studying synchronized cells and the cell cycle. By partial hepatectomy, the hepatocyte quiescent cells present in normal adult rat liver can be stimulated to enter the replicative cell cycle and the effect of inhibitors on the cycle analyzed. This example provides the effect of the subject calmodulin inhibitory peptides on the DNA synthesis of rat liver cells in partial hepatectomy stage following intra venal injection of the peptides.
Male Sprague-Dawley rats ([…]; 2 rats per peptide or control) were fasted overnight. Partial hepatectomies were carried out under Ketolar anesthesia (Parke-Davis; Ann Arbor, Mich.), following the procedure described by Higgins and Anderson in Arch. Pathol., 12:186-202 (1931), which is incorporated herein by reference. […] DNA synthesis was assessed by measuring the radioactivity incorporated into DNA following an intraperitoneal injection (0.5 mCi/g body weight) of [^3 H] thymidine 1 hr prior to killing the rat and at 23 hours post hepatectomy. […] The liver tissue was homogenized in 10% trifluoroacetic acid at 4° C. and the DNA extracted and its radioactivity measured following the procedure described by Burton, Biochem. J., 62:315-320 (1956), which is incorporated herein by reference. […]

[1] = system: normal rat kidney (NRK) cells; assay: DNA synthesis ([3H]-thymidine incorporation) in cell culture; format: cell-based; conditions: added at 5 hr
Protocol: Following the methods described in Lopez-Girona et al., Cell Calcium, 18:30-40 (1995), which is incorporated herein by reference, the effect of calmodulin inhibitory peptides on DNA synthesis was investigated. Specifically, peptides were added to culture media and assessed for their ability to inhibit the progression of normal rat kidney (NRK) cells into the S phase of the cell cycle; the DNA synthesis phase into the cell growth cycle. Such inhibition has been shown for existing anti-calmodulin drugs such as W13.
NRK cells were made quiescent by growing them to confluence in Dulbecco's minimum essential medium supplemented with 5% fetal calf serum (FCS), and then kept for 3-4 days in the same medium but with only 0.5% FCS. To allow them to re-enter the cell cycle, quiescent cells were trypsinized and subcultured at a lower density in fresh medium supplemented with 5% FCS.
DNA synthesis was analyzed by the measurement of [^3 H]-thymidine into whole cell DNA. NRK cells (10^5 per 35 mm plate) were pulse labeled for 1 hr with [methyl-^3 H]-thymidine (5 Ci/mmol) at 4 μCi/ml in Dulbecco's minimum essential medium supplemented with 5% FCS. Precipitation and solubilization of DNA was carried out as described in Cripps-Wolfman et al., J. Biol. Chem., 264:19478-19486 (1989), which is incorporated herein by reference.
The NRK cells stimulated to proliferate by addition of 5% FCS enter synchronously into the cell cycle and start the S phase after 12 hr reaching a maximum between 18 to 20 hr. The peptides were added at 5 hr (time at which the cells have already reenter the G1 phase). […] Similar results were found between the (D)-amino acid peptides and their (L)-counterpart.

phosphodiesterase = assay: calcium-dependent phosphodiesterase assay in the absence of calmodulin; format: biochemical; conditions: Table III
Protocol: To sample assay tubes were added the following components: assay buffer, 25 ul; CaCl2, 5 ul; 5'-nucleotidase, 7.5 ul (stock solution is 10 units/ml); calmodulin 5 units; calmodulin inhibitor peptides to obtain the desired final concentration of 50 μM. The volume was then made up to 200 ul with water. Control blanks were prepared replacing the peptides with water. The added components were thoroughly mixed and the tubes incubated at 30° C. for 10 min. Then, 25 ul of cAMP at 10.8 mM was added and incubated for 90 min at 30° C. The reaction was stopped by the addition of 50 ul of 55% trichloroacetic acid (TCA). The samples were centrifuged to remove the protein precipitate and the 50 ul of the supernatant was withdrawn for phosphate measurement. To the supernatant aliquot, 50 ul ammonium molybdate (0.55% in 1.1 N sulfuric acid) was added, followed by the addition of 5 ul of reducing agent (24 g sodium bisulfite, 2.4 g sodium sulfite, 0.5 g of 1-amino-2-naphthol-4-sulfonic acid in 200 ml of water), and the contents were mixed by vortexing. The absorbance of the solution were read at 660 nm using water as a blank, identified as control "Calmo."
As described above, one of the undesirable biological effects of existing calmodulin inhibitors is their non-specific binding to other proteins and the like. Therefore, the specificity of the instant inhibitory peptides for calmodulin was examined. The specificity was determined using the calcium-dependent phosphodiesterase assay described in Example I. The assay was carried out for the determination of IC50 values in the presence of calmodulin (IC50 value for calmodulin) and in the absence of calmodulin (IC50 for phosphodiesterase), the latter of which provides the effect of the inhibitory peptides on the phosphodiesterase.

calmodulin = calmodulin (Homo sapiens, UniProt P0DP23); assay: calcium-dependent phosphodiesterase assay (calmodulin activity); format: biochemical
Protocol: In the calcium dependent phosphodiesterase assay, calmodulin can be assayed by its ability to stimulate phosphodiesterase activity as determined by a two-step assay procedure illustrated by reactions (1) and (2) below. [drawing 1]
During the first step of the assay cyclic adenosine 3'5'-monophosphate (cAMP) is incubated with calcium-activated phosphodiesterase (Cal-PDE), which hydrolyses the 3'bond producing adenosine 5'-monophosphate (5'-AMP). During the second step, 5'-AMP is quantitatively converted into adenosine and inorganic phosphate (Pi) through the action of a 5-nucleotidase. The reaction is followed by the measurement of the Pi formed by reading the absorbance at 660 nm after reacting with ammonium molybdate. The amount of Pi formed is directly related to the phosphodiesterase activity which depends on the level of activation by calmodulin.
To sample assay tubes were added the following components: assay buffer, 25 ul; CaCl2, 5 ul; 5'-nucleotidase, 7.5 ul (stock solution is 10 units/ml); calmodulin 5 units; calmodulin inhibitor peptides to obtain the desired final concentration of 50 μM. The volume was then made up to 200 ul with water. Control blanks were prepared replacing the peptides with water. The added components were thoroughly mixed and the tubes incubated at 30° C. for 10 min. […] The samples were centrifuged to remove the protein precipitate and the 50 ul of the supernatant was withdrawn for phosphate measurement. […] The absorbance of the solution were read at 660 nm using water as a blank, identified as control "Calmo."
The two controls used in the assay, one without and one with calmodulin, as indicated in FIG. 1 and Table I were as follows,: (1) PDE:
These three controls were used in the calcium-dependent phosphodiesterase assay for reproducibility of the assay.
In addition to the calcium-dependent phosphodiesterase assay data, IC50 values were determined for many of the peptides. The assay carried out for the determination in the IC50 values differed from the above screening assay by the concentration of the peptides being tested.
(3) TFP: trifluoperazine; and (4) Calmidasolium: (1-[bis-(4-chlorophenyl)methyl]-3[-2-(2,4-dichlorophenyl)-2[(2,4-dichlorophenyl)methoxy]-ethyl]-1H-imidazolium chloride. The IC50 values were calculated using sigmoidal curve software (Graphpad, ISI; San Diego, Calif.) using the % inhibition at different mixture concentrations (see protocol for determination of % inhibition).
The (L)-amino acid counterpart for five (5) of the all (D)-amino acid peptides identified from the PS-SCL were synthesized in order to study the stereoselectivity of the inhibition.

NRK cells = assay: long term stability: number of NRK cells at 48 hr after activation; format: cell-based, rat; conditions: added at 5 hr, counted 48 hr after activation
From the text: The similar activity found for the (L)-amino acid peptides and (D)-amino acid peptides indicate that the inhibition of calmodulin occurs rapidly following the addition of the inhibitory peptides. The peptides' long term stability was then studied by adding Ac-(D)Leu-(D)Trp-(D)Arg-(D)Ile-(D)Leu-(D)Trp-NH2, Ac-Leu-Trp-Arg-Ile-Leu-Trp-NH2 (SEQ ID No. 48), W13 and W12 at 5 hr following the reentry of the NRK cells into the cell cycle and measuring the number of cells at 48 hr after activation.

[2] = Table I, assayed at 75, 50 and 12.5 μM, average of repeated assays, read-out: Average IC50

| Structure (SMILES) | % DNA SYNTHESIS (rat liver cells) | % DNA SYNTHESIS ([1]; 7.5 μM) | % DNA SYNTHESIS ([1]; 15 μM) | IC50 (phosphodiesterase) | IC50 (calmodulin; [2]) | IC50 (calmodulin; Table III, in the presence of calmodulin, read-out: IC50 (μM) for calmodulin) | SPECIFICITY (calmodulin; comparison of IC50 for phosphodiesterase with IC50 for calmodulin) | number of cells relative to control cells (NRK cells) | % DNA SYNTHESIS ([1]; 30 μM) |
| --- | --- | --- | --- | --- | --- | --- | --- | --- | --- |
| CC[C@@H](C)[C@@H](NC(=O)[C@@H](CCC(N)=O)NC(=O)[C@@H](CC(C)C)NC(C)=O)C(=O)N[C@H](Cc1c[nH]cn1)C(=O)N[C@H](CC(C)C)C(=O)N[C@H](CCCNC(=N)N)C(N)=O [Ac-(D)Leu-(D)Gln-(D)Ile-(D)His-(D)Leu-(D)Arg-NH2] (Ac-[dL][dQ][dI][dH][dL][dR]-NH2) | 100% | 100% | 84% | 104 µM | 70 µM | 43 µM | 2.4 |  |  |
| NCCCCNS(=O)(=O)c1ccc2ccccc2c1 [Peptide W12, reference compound] |  |  |  |  |  |  |  | the same number of cells | 100% |
| NCCCCNS(=O)(=O)c1ccc2c(Cl)cccc2c1 [Peptide W13, N-(4-aminobutyl)-5-chloro-2-naphtalenesulfonamide, reference compound] |  |  |  |  | 93 µM |  |  | significantly lower number of cells | 60% |
